Among the test systems are SNB-75 CNS; A549 NSCLC; UACC-257 melanoma; SF-295 CNS; MALME-3M melanoma; COLO 205 colon; NCI-H460 lung; HT29 colon; CAKI-1 renal; EKVX NSCLC.
Common to all, as to test: NCI-60 cell line screen, 48 h

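Results reflect a 48-hour exposure of cells in 96-well plates to compound at five concentrations. GI50 is the concentration that inhibits growth by half. TGI denotes the concentration required for complete inhibition of growth.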 Some results are limits rather than exact numbers.

Turning to `O=C1CSC(C(N=Nc2ccc(Cl)cc2)c2nc3ccccc3[nH]2)=N1` (stereo not given), the TGI with SNB-75 CNS was 90.2 µM; in the experiment on A549 NSCLC, above 100 µM; in the experiment with UACC-257 melanoma, above 100 µM; with SF-295 CNS, above 100 µM; with MALME-3M melanoma it was above 100 µM; with COLO 205 colon, above 100 µM. Also, the TGI in the experiment with NCI-H460 lung, with HT29 colon, in the experiment with CAKI-1 renal and with EKVX NSCLC was above 100 µM each time.

As to `CCCCc1c2c(nc3c1CC/C(=C\c1ccc([N+](=O)[O-])cc1)C3=O)CCCC2`, the TGI with SNB-75 CNS was 20.6 µM; in the experiment with A549 NSCLC, 16.3 µM; in the experiment on UACC-257 melanoma, 4.6 µM; in the experiment on SF-295 CNS, 4.07 µM; with MALME-3M melanoma, 3.84 µM; in the experiment with COLO 205 colon, 6.63 µM. The TGI with NCI-H460 lung is 2.92 µM; in the experiment on HT29 colon, 2.66 µM; with EKVX NSCLC, 23.7 µM.

For `COc1ccc(-c2cc(-c3ccccc3)nc3c2CC(=O)Nc2ccccc2-3)cc1OC`, the TGI in the experiment on SNB-75 CNS is 2.67 µM; with A549 NSCLC, above 36.3 µM; in the experiment on UACC-257 melanoma, above 100 µM; in the experiment with SF-295 CNS, above 100 µM; in the experiment with MALME-3M melanoma, above 70.3 µM; with COLO 205 colon it was above 100 µM. Besides, the TGI with NCI-H460 lung, with HT29 colon, with CAKI-1 renal and in the experiment on EKVX NSCLC was above 100 µM in each case.

Regarding `COC(=O)c1ccc(C)cc1CC1Cc2c(C)cccc2C1=O` (stereo not given), the TGI with SNB-75 CNS is 20.9 µM; with A549 NSCLC, above 60.5 µM; in the experiment on UACC-257 melanoma it was 49 µM; in the experiment on SF-295 CNS, above 52.8 µM; with MALME-3M melanoma, 45.1 µM; in the experiment on COLO 205 colon it was 17 µM. Moreover, the TGI in the experiment with NCI-H460 lung is above 78.3 µM; in the experiment with HT29 colon, 11.1 µM; in the experiment with CAKI-1 renal, 30.8 µM; in the experiment on EKVX NSCLC it was 73.5 µM.

In the case of `COCn1c(C)c(C)c2c(=O)oc(C)nc21`, the TGI with SNB-75 CNS, in the experiment on A549 NSCLC, in the experiment with UACC-257 melanoma, in the experiment on SF-295 CNS, in the experiment with MALME-3M melanoma and in the experiment with COLO 205 colon was above 100 µM in each case. For the same compound, the TGI in the experiment with NCI-H460 lung was above 100 µM; in the experiment with HT29 colon, above 100 µM; with CAKI-1 renal, 45 µM; in the experiment on EKVX NSCLC, above 100 µM.

Take `COC(=O)C1=COc2c(n(C)c3ccccc23)-c2ccccc21`: the TGI with SNB-75 CNS, in the experiment with UACC-257 melanoma, in the experiment on SF-295 CNS, with MALME-3M melanoma, in the experiment on COLO 205 colon and in the experiment with NCI-H460 lung was above 100 µM throughout. Further, the TGI in the experiment with HT29 colon, in the experiment on CAKI-1 renal and in the experiment with EKVX NSCLC was above 100 µM in each case.

On to `Cc1nc2ccccc2n1Cc1nnc2n1N=C(c1ccccc1)CS2`, for which the TGI in the experiment with SNB-75 CNS was 59 µM; with A549 NSCLC, above 100 µM; with UACC-257 melanoma, 65.3 µM; in the experiment on SF-295 CNS it was above 100 µM; with MALME-3M melanoma, above 100 µM; in the experiment on COLO 205 colon it was above 100 µM. Also, the TGI in the experiment with NCI-H460 lung, in the experiment with HT29 colon, in the experiment on CAKI-1 renal and in the experiment with EKVX NSCLC was above 100 µM throughout.

`CC(=O)OCCOCCN1CCN(c2c(O)c3c(c(O)c2Cl)C(=O)C=CC3=O)CC1`: the TGI in the experiment with SNB-75 CNS was 3.71 µM; in the experiment on A549 NSCLC, 3.94 µM; in the experiment with UACC-257 melanoma, 2.38 µM; with SF-295 CNS, 3.72 µM; in the experiment with MALME-3M melanoma, 0.96 µM; in the experiment on COLO 205 colon, 0.68 µM. For the same compound, the results for the TGI in the experiment with HT29 colon, in the experiment on CAKI-1 renal and in the experiment with EKVX NSCLC were 2.17 µM, 0.878 µM and 3.22 µM, respectively.

On to `Cc1c(-c2ccc(O)c(O)c2)oc(=O)c2c(O)cccc12`, for which the TGI in the experiment on SNB-75 CNS was 76 µM; in the experiment with A549 NSCLC, above 100 µM; in the experiment on UACC-257 melanoma it was 44.3 µM; in the experiment with SF-295 CNS it was 42.2 µM; in the experiment with MALME-3M melanoma, 26.9 µM; in the experiment with COLO 205 colon, 30.1 µM. The TGI was 41 µM with NCI-H460 lung, 36 µM in the experiment on CAKI-1 renal and above 100 µM with EKVX NSCLC.

As for `Cc1ccc([N+](=O)[O-])cc1S(=O)(=O)Nc1ccc(C2=NN(S(=O)(=O)c3cc([N+](=O)[O-])ccc3C)C(c3ccco3)C2)cc1` (stereo not given), the TGI in the experiment with SNB-75 CNS is above 100 µM; in the experiment on UACC-257 melanoma, 45.6 µM; with SF-295 CNS, above 100 µM; with MALME-3M melanoma it was above 100 µM; in the experiment with COLO 205 colon, above 100 µM; in the experiment with HT29 colon it was above 100 µM. Also, the TGI was above 100 µM with CAKI-1 renal and 94 µM in the experiment with EKVX NSCLC.

Take `C[N+](C)(C)C(C1=CCCC1=O)c1ccccc1` (stereo not given): the TGI with SNB-75 CNS is above 100 µM; in the experiment on A549 NSCLC, above 100 µM; in the experiment on UACC-257 melanoma it was 64.4 µM; in the experiment with SF-295 CNS, above 100 µM; with MALME-3M melanoma it was 41 µM; in the experiment on COLO 205 colon it was above 100 µM. The TGI is 89.8 µM in the experiment on NCI-H460 lung, 56 µM in the experiment with HT29 colon, 63.9 µM with CAKI-1 renal and above 100 µM with EKVX NSCLC.

As to `Nc1ccc(OCCCc2c(-c3ccccc3)nc(N)[nH]c2=O)cc1`, the TGI with SNB-75 CNS, in the experiment on UACC-257 melanoma, with SF-295 CNS, in the experiment with MALME-3M melanoma, in the experiment on COLO 205 colon and with NCI-H460 lung was above 100 µM in each case. Further, the TGI with HT29 colon, in the experiment with CAKI-1 renal and with EKVX NSCLC was above 100 µM in each case.

On to `CC(C)N(/C(F)=N\C(=O)Nc1ccccc1C(F)(F)F)C(C)C`, for which the TGI with SNB-75 CNS, in the experiment with A549 NSCLC, in the experiment with UACC-257 melanoma, in the experiment on SF-295 CNS, with MALME-3M melanoma and in the experiment on COLO 205 colon was above 100 µM each time. In addition, the TGI in the experiment on NCI-H460 lung, with HT29 colon, in the experiment with CAKI-1 renal and with EKVX NSCLC was above 100 µM throughout.

Regarding `O=C(CCc1ccc(O)cc1)NCCCNC(=O)CCc1ccc(O)cc1`, the TGI in the experiment with SNB-75 CNS, in the experiment with A549 NSCLC, in the experiment with UACC-257 melanoma, with SF-295 CNS, in the experiment on MALME-3M melanoma and in the experiment on COLO 205 colon was above 100 µM each time. Also, the TGI with NCI-H460 lung, in the experiment on HT29 colon and with CAKI-1 renal was above 100 µM throughout.

With `Clc1cccc2c1OCC1C(c3ccccc3)=NN(c3ccccc3)C21` (stereo not given), the TGI in the experiment with SNB-75 CNS, in the experiment with A549 NSCLC, with UACC-257 melanoma, in the experiment with SF-295 CNS, in the experiment with MALME-3M melanoma and in the experiment with COLO 205 colon was above 100 µM in each case. Besides, the TGI with NCI-H460 lung, in the experiment on HT29 colon and in the experiment with EKVX NSCLC was above 100 µM in each case.

For the compound `Cc1nnc([C@@]2(C)CC[C@H]3[C@@H](CCC4=CC(=O)CC[C@@]43C)[C@@H]2CC#N)o1`, the TGI in the experiment on SNB-75 CNS, in the experiment with A549 NSCLC, with UACC-257 melanoma, in the experiment with SF-295 CNS, in the experiment with MALME-3M melanoma and with COLO 205 colon was above 100 µM in each case. Moreover, the TGI in the experiment with HT29 colon, in the experiment with CAKI-1 renal and in the experiment on EKVX NSCLC was above 100 µM in each case.

`CC(=O)c1ccccc1NS(=O)(=O)c1ccc2nc(C)n(NS(=O)(=O)c3ccccc3C(C)=O)c(=O)c2c1`: the TGI in the experiment on SNB-75 CNS, in the experiment on UACC-257 melanoma, with SF-295 CNS, with MALME-3M melanoma, with COLO 205 colon and in the experiment with NCI-H460 lung was above 100 µM each time. In addition, the TGI with HT29 colon, in the experiment on CAKI-1 renal and with EKVX NSCLC was above 100 µM throughout.

On to `O=S(=O)(O)c1ccccc1N=Nc1ccc(N=Nc2c(O)ccc3ccccc23)c(S(=O)(=O)O)c1`, for which the TGI in the experiment on SNB-75 CNS, with A549 NSCLC, in the experiment on UACC-257 melanoma, in the experiment with SF-295 CNS, in the experiment with MALME-3M melanoma and in the experiment on COLO 205 colon was above 100 µM in each case. In addition, the TGI in the experiment with HT29 colon, in the experiment on CAKI-1 renal and with EKVX NSCLC was above 100 µM each time.

Consider `Cc1cc(=O)c2ccccc2n1CCCCCCCCCCn1c(C)cc(=O)c2ccccc21`, for which the TGI with SNB-75 CNS was found to be 87 µM; in the experiment on A549 NSCLC, 56.2 µM; in the experiment on UACC-257 melanoma, 25.2 µM; in the experiment on MALME-3M melanoma, 34.4 µM; in the experiment on COLO 205 colon, 51.9 µM; in the experiment with NCI-H460 lung it was 87.4 µM. In addition, the TGI in the experiment on HT29 colon turned out to be 29.9 µM; in the experiment with CAKI-1 renal it was 36.1 µM; in the experiment on EKVX NSCLC, 33.9 µM.

Regarding `O=C(c1ccccc1)c1nn(-c2ccccc2)c2nc3nc(-c4ccccc4)cc(=O)n3nc12`, the GI50 in the experiment on SNB-75 CNS is 36.1 µM; in the experiment on A549 NSCLC, 26.5 µM; in the experiment on UACC-257 melanoma, 30.7 µM; with SF-295 CNS it was 19.9 µM; in the experiment with MALME-3M melanoma it was 0.0477 µM; in the experiment on COLO 205 colon, 26.8 µM. Also, the GI50 with HT29 colon is 24.7 µM; in the experiment on CAKI-1 renal, 68 µM; in the experiment with EKVX NSCLC, 22.2 µM. Also, the TGI in the experiment on SNB-75 CNS is above 100 µM; in the experiment with A549 NSCLC, 81.4 µM; with UACC-257 melanoma, 61.4 µM; in the experiment on SF-295 CNS, 53 µM; in the experiment on MALME-3M melanoma, 34.6 µM; with COLO 205 colon, 64.1 µM. Further, the TGI with HT29 colon is 64.2 µM; in the experiment with CAKI-1 renal it was above 100 µM; in the experiment with EKVX NSCLC, 58.2 µM.

(Values after PubChem BioAssay (NCI).)
